Measurements taken from patent US20250025435A1, “CO-CRYSTALS OF NONSTEROIDAL ANTI-INFLAMMATORY DRUGS, LYSINE AND GABAPENTIN, PHARMACEUTICAL COMPOSITIONS AND THEIR MEDICAL USE” (DOMPE' FARMACEUTICI SPA, priority 2021, published 2025).

Tests used:
[1] = system: carrageenan-induced rat paw edema; experiment: Carrageenan-induced rat paw edema test; type: in vivo, Male Wistar rats; details: for volume reduction of paw edema in rats (%): vs vehicle-treated group, single oral dose; for paw thickness: mean±SEM, n=8, vehicle 9.55±0.47 mm
[2] = system: mechanical allodynia in carrageenan-injected rats; experiment: Mechanical allodynia (von Frey, up and down method) in rat carrageenan-induced paw edema model; type: in vivo, Male Wistar rats; details: 3 h post-carrageenan; ipsilateral paw; n=8; vehicle 8.25±1.61 g, baseline 80±7.56 g
[3] = design: species or system Sprague Dawley male rat; details: rat, in vivo, po
Text: Sprague Dawley male rat (body weights 310 gr at the time of the treatment) were used in this study. The animals were originally supplied by Harlan, Italy. Once receipt from the supplier, the animals were subjected to health examinations and acceptance. The animals were housed, in a group of three, in cages suitable for the species and were routinely kept in the following environment except for short periods of time where experimental procedures dictated otherwise. The animals were acclimatized to local housing conditions for approximately 5 days. The animals were housed in a single, exclusive room, air conditioned to provide a minimum of 15 air changes/hour. The environmental controls were set to maintain temperature within the range 22° C. and relative humidity within the range 50 to 60% with an approximate 12 hour light and 12 hour dark cycle that is controlled automatically. Food (Mucedola Standard GLP diet) and water were available ad libitum throughout the study. All animals were weighed on the day of each treatment. Clinical signs were monitored at regular intervals throughout the study in order to assess any reaction to treatment. Each animal was uniquely identified with a coloured spray on the back before the experiment. At the end of the study animals were sacrificed by exsanguination under anaesthesia. […]

[4] = cited from earlier work

Compound: Flurbiprofen-Lysine-Gabapentin [Flur/Lys/Gaba]
- volume reduction of paw edema in rats (%) ([1]; 1 h post-carrageenan): −21.80%
- volume reduction of paw edema in rats (%) ([1]; 3 h post-carrageenan): −39.91%
- paw thickness ([1]; 5 h post-carrageenan): 5.51±0.42 mm
- volume reduction of paw edema in rats (%) ([1]; 5 h post-carrageenan): −42.27%
- paw withdrawal threshold [2]: 85.75 ± 9.86 g
- Cmax (ng/mL) Flurbiprofen [3]: 14725 ± 1267 ng/mL
- Cmax (ng/mL) Gabapentin [3]: 3008 ± 246 ng/mL

Compound: COc1ccc2c(c1)c(CC(=O)O)c(C)n2C(=O)c1ccc(Cl)cc1 [Indomethacin]
- volume reduction of paw edema in rats (%) ([1]; 1 h post-carrageenan): −17.68%
- volume reduction of paw edema in rats (%) ([1]; 3 h post-carrageenan): −35.27%
- paw thickness ([1]; 5 h post-carrageenan): 5.69±0.27 mm
- volume reduction of paw edema in rats (%) ([1]; 5 h post-carrageenan): −40.45%
- paw withdrawal threshold [2]: 36 ± 7.21 g

Compound: CC(C(=O)O)c1ccc(-c2ccccc2)c(F)c1 (stereo not drawn) [Flurbiprofen]
- volume reduction of paw edema in rats (%) ([1]; 1 h post-carrageenan): −18.20%
- volume reduction of paw edema in rats (%) ([1]; 3 h post-carrageenan): −31.50%
- paw thickness ([1]; 5 h post-carrageenan): 6.5±0.28 mm
- volume reduction of paw edema in rats (%) ([1]; 5 h post-carrageenan): −32.0%
- paw withdrawal threshold [2]: 44.62 ± 14.43 g

Compound: NCC1(CC(=O)O)CCCCC1 [Gabapentin]
- volume reduction of paw edema in rats (%) ([1]; 1 h post-carrageenan): −1.93%
- volume reduction of paw edema in rats (%) ([1]; 3 h post-carrageenan): −16.21%
- paw thickness ([1]; 5 h post-carrageenan): 7.45±0.26 mm
- volume reduction of paw edema in rats (%) ([1]; 5 h post-carrageenan): −17.27%
- paw withdrawal threshold [2]: 66.5 ± 11 g
- time to utmost level in plasma ([4]; after oral administration (Quintero 2017)): 3 to 4 h
- excretion half-life ([4]; expelled by the renal system): roughly 6 hours
